1 compound from US20260207656A1, “COMPOSITION FOR PREVENTING AND/OR TREATING METABOLIC DISORDERS AND METHOD OF ITS PREPARATION” (Pharmako Biotechnologies Pty Ltd, priority 2022, published 2026) can be followed below.

This series in a line: In vivo study in rats fed a high-fat diet for 3 weeks (Example 2): body weight, blood glucose, liver weight, hepatic enzymes. The arrangement: species or system Sprague-Dawley rats. As for the experimental part:
Sprague-Dawley rats (8-week-old; OzGene, formerly Animal Resources Centre, Perth) were fed a high-fat diet (22% fat/44% energy from fat, sourced from Specialty Feeds, Glen Forrest WA) where animals were provided access to food ad libitum for a period of 3 weeks. The rats were divided into groups and administered treatments as follows: (i) PBS (negative control), (ii) INU-BEN (1 g/kg), (iii) orlistat (tetrahydrolipstatin) (positive control; 75 mg/kg; Dayang Chem (Hangzhou) Co., Ltd) and (iv) a combination group of INU-BEN (1 g/kg) and orlistat (75 mg/kg). The rats were treated daily between […]. The experimental studies involved monitoring body weight daily, prior to dosing. Thereafter, blood samples were collected (by tail vein) prior to the rats being euthanized and were analysed for blood glucose levels and liver enzyme concentrations. The rats were dissected and analysed for fat pad weight and liver weight. The rat microbiomes were also analysed at the completion of the 3-week treatment period via faecal samples.

Each structure is given as a SMILES string.

As to `CCCCCCCCCCC[C@@H](C[C@@H]1OC(=O)[C@H]1CCCCCC)OC(=O)[C@H](CC(C)C)NC=O` [orlistat, tetrahydrolipstatin], under “after 3 weeks of treatment, FIGS. 7A-7C”, the “plasma hepatic enzyme concentrations (LDH, ALT, AST)” value is given as “does not exert a positive impact on plasma hepatic enzyme concentrations”. Also, for the setting “daily treatment for 3 weeks, INU-BEN 1 g/kg, orlistat 75 mg/kg, vs PBS negative control, FIG. 3/4”, the “body weight gain (change in rodent body weight normalized to original body weight)” value is given as “performed about the same”.
